Four compounds from patent publication US7820672B2, “Indolylmaleimide derivatives” (Novartis AG, priority 2003, dated 2010) can be followed below.

In general, IC50 refers to the concentration needed to halve the response being measured.

Experiment [1] concerns the target Human recombinant PKCθ (Homo sapiens, UniProt Q04759). The experiment in a line: Protein Kinase C θ assay. The format is biochemical. The procedure:
(§1) The compounds of formula I are tested for their activity on different PKC isoforms according to a published method (D. Geiges et al. Biochem. Pharmacol. 1997; 53:865-875) The assay is performed in a 96-well polypropylene microtiterplate (Costar 3794) that has been previously siliconized with Sigmacote (Sigma SL-2). The reaction mixture (50 μl) contains 10 μl of the relevant PKC isozyme together with 25 μl of the test compound and 15 μl of a mix solution that contains 200 μg/ml protamine sulfate, 10 mM Mg(NO3)2, 10 μM ATP (Boehringer 519987) and 3750 Bq of ^33P-ATP (Hartmann Analytic SFC301, 110 TBq/mmol) in 20 mM Tris-buffer pH 7.4+0.1% BSA. Incubation is performed for 15 min at 32° C. in a microtiterplate shaking incubator (Biolabo Scientific Instruments). Reaction is stopped by adding 10 μl of 0.5 M Na2EDTA, pH 7.4. 50 μl of mixture are pipetted onto a pre-wetted phosphocellulose paper (Whatmann 3698-915) under gentle pressure. Non-incorporated ATP is washed away with 100 μl bi-dist H2O. The paper is washed twice in 0.5% H3PO4 for 15 min followed by 5 min in EtOH. Thereafter the paper is dryed and placed in an omnifilter (Packard 6005219), and overlayed with 10 μl/well of Microscint-O (Packard 6013611) before counting in a Topcount radioactivity counter (Packard). IC50 measurement is performed on a routine basis by incubating a serial dilution of inhibitor at concentrations ranging between 1-1000 μM according to the method described above. IC50 value are calculated from the graph by sigmoidal curve fitting.
Human recombinant PKCθ is used under the assay conditions as described above. In this assay, compounds of formula I inhibit PKC θ with an IC50≦1 μM.

In experiment [2] the target is T1, Human recombinant PKCα (Homo sapiens, UniProt P17252).
T1 construct: purchased Oxford Biomedical Research
The experiment can be described thus: Protein Kinase Cα assay. It counts as biochemical. The procedure: as §1
Human recombinant PKCα was obtained from Oxford Biomedical Research and is used under the assay conditions as described under Section A.1 above. In this assay, compounds of formula I inhibit PKCα with an IC50≦1 μM.

Experiment [3] has as its target T2, Human recombinant PKCβ1 (Homo sapiens, UniProt P05771).
T2 construct: purchased Oxford Biomedical Research
The experiment in a line: Protein Kinase Cβ1 assay. It counts as biochemical. As for the experimental part: as §1
Human recombinant PKCβ1 was obtained from Oxford Biomedical Research and is used under the assay conditions as described under Section A.1 above. In this assay, compounds of formula I inhibit PKCβ1 with an IC50≦1 μM.

Experiment [4] deals with T3, Human recombinant PKCδ (Homo sapiens, UniProt Q05655).
T3 construct: purchased Oxford Biomedical Research
T3 sequence (Q05655 whole entry): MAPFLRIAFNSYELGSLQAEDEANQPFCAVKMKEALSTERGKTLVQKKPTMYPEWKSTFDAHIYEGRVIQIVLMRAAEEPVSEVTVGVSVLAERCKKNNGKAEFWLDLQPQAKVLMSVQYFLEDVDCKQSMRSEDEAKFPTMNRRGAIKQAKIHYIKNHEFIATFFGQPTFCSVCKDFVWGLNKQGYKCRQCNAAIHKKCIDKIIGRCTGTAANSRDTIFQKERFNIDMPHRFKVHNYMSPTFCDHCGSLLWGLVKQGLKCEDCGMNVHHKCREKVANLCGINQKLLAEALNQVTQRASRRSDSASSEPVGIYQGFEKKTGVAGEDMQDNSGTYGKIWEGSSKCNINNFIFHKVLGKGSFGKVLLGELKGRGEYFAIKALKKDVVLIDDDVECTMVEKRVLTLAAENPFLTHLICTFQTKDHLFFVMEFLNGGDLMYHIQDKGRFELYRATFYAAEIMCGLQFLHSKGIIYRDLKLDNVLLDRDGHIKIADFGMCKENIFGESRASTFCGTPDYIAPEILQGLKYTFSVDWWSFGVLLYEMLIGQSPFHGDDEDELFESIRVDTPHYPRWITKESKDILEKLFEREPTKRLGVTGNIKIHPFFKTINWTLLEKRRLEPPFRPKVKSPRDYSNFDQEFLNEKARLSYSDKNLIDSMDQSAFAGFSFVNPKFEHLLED
The experiment in a line: Protein Kinase Cδ assay. The format is biochemical. As for the experimental part:
as §1, with “IC50 measurement is performed on a routine basis by incubating a serial dilution of inhibitor at concentrations ranging between 1-1000 μM according to the method described above.” left out, “fitting. […]” for “fitting.”

Experiment [5] concerns the target T4, Human recombinant PKCε (Homo sapiens, UniProt Q02156).
T4 construct: purchased Oxford Biomedical Research
T4 sequence (Q02156 1-737): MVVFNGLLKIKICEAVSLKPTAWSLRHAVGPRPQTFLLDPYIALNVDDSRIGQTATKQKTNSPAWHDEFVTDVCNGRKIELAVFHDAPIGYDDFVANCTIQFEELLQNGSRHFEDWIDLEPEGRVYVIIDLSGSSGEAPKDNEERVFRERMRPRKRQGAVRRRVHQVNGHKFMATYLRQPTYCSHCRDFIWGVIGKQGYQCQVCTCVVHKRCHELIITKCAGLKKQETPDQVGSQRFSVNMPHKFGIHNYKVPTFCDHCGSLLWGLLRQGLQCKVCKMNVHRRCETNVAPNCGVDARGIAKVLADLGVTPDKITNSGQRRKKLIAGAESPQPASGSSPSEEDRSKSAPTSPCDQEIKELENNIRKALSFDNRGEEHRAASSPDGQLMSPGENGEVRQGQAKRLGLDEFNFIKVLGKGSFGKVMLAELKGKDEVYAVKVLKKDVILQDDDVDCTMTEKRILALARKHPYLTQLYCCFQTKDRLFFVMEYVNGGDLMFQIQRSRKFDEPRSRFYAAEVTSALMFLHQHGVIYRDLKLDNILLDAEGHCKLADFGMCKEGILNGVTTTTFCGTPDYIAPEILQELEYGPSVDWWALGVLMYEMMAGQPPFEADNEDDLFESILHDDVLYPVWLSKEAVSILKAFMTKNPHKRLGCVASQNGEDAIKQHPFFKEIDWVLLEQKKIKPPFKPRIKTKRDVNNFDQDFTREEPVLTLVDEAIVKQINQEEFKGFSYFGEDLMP
The experiment can be described thus: Protein Kinase Cε assay. The format is biochemical. Particulars: read-out: IC50 in Protein Kinase Cε assay (sentence prints PKCδ). As for the experimental part:
as §1, with “IC50 measurement is performed on a routine basis by incubating a serial dilution of inhibitor at concentrations ranging between 1-1000 μM according to the method described above.” left out, “fitting. […]” for “fitting.”

Experiment [6] has as its target T5, Human recombinant PKCη (Homo sapiens, UniProt P24723).
T5 construct: purchased PanVera
The experiment in a line: Protein Kinase Cη assay. The format is biochemical. The procedure: as §1, with “IC50 measurement is performed on a routine basis by incubating a serial dilution of inhibitor at concentrations ranging between 1-1000 μM according to the method described above.” left out, “fitting. […]” for “fitting.”

For experiment [7], the system named is Jurkat cells transfected with a human interleukin-2 promoter/reporter gene construct. The experiment can be described thus: CD28 costimulation assay (IL-2 promoter/luciferase reporter). The format is cell-based. Particulars: stimulated Jurkat cells, luciferase reporter. The procedure: The assay is performed with Jurkat cells transfected with a human interleukin-2 promoter/reporter gene construct as described by Baumann G et al. in Transplant Proc. 1992; 24:43-8, the β-galactosidase reporter gene being replaced by the luciferase gene (de Wet J., et al., Mol. Cell Biol. 1987, 7(2), 725-737). Cells are stimulated by solid phase-coupled antibodies or phorbol myristate acetate (PMA) and the Ca^++ ionophore ionomycin as follows. For antibody-mediated stimulation Microlite TM1 microtiter plates (Dynatech) are coated with 3 μg/ml goat anti-mouse IgG Fc antibodies (Jackson) in 55 μl phosphate-buffered saline (PBS) per well for three hours at RT. Plates are blocked after removing the antibodies by incubation with 2% bovine serum albumin (BSA) in PBS (300 μl per well) for 2 hours at RT. After washing three times with 300 μl PBS per well, 10 ng/ml anti-T cell receptor antibodies (WT31, Becton & Dickinson) and 300 ng/ml anti-CD28 antibodies (15E8) in 50 μl 2% BSA/PBS are added as stimulating antibodies and incubated overnight at 4° C. Finally the plates are washed three times with 300 μl PBS per well. Seven three-fold serial dilutions of test compounds in duplicates in assay medium (RPMI 1640/10% fetal calf serum (FCS) containing 50 μM 2-mercaptoethanol, 100 units/ml penicillin and 100 μg/ml streptomycin) are prepared in separate plates, mixed with transfected Jurkat cells (clone K22 290_H23) and incubated for 30 minutes at 37° C. in 5% CO2. […] After incubation for 5.5 hours at 37° C. in 5% CO2, the level of luciferase is determined by bioluminescence measurement. […] Luciferase activity is assessed with a bioluminescence reader (Labsystem, Helsinki, Finland) after automatic addition of 50 μl per well luciferase reaction buffer containing 20 mM Tricine, 1.07 mM (MgCO3)4Mg(OH)2×5H2O, 2.67 mM MgSO4, 0.1 mM EDTA, 33.3 mM DTT, 270 μM coenzyme A, 470 μM luciferin (Chemie Brunschwig AG), 530 μM ATP, pH 7.8. […] The inhibition obtained in the presence of a test compound is calculated as percent inhibition of the high control. […]
A general note: A reporter such as luciferase makes a cellular process visible.

Experiment [8] relates to spleen cells from CBA and BALB/c mice. The experiment in a line: Allogeneic mixed lymphocyte reaction (MLR). It counts as cell-based. Particulars: Mus musculus, two-way MLR, 3H-thymidine incorporation. As for the experimental part:
The two-way MLR is performed according to standard procedures (J. Immunol. Methods, 1973, 2, 279 and Meo T. et al., Immunological Methods, New York, Academic Press, 1979, 227-39). Briefly, spleen cells from CBA and BALB/c mice (1.6×10^5 cells from each strain per well in flat bottom tissue culture microtiter plates, 3.2×10^5 in total) are incubated in RPMI medium containing 10% FCS, 100 U/ml penicillin, 100 μg/ml streptomycin (Gibco BRL, Basel, Switzerland), 50 μM 2-mercaptoethanol (Fluka, Buchs, Switzerland) and serially diluted compounds. Seven three-fold dilution steps in duplicates per test compound are performed. After four days of incubation 1 μCi ^3H-thymidine is added. Cells are harvested after an additional five-hour incubation period, and incorporated ^3H-thymidine is determined according to standard procedures. Background values (low control) of the MLR are the proliferation of BALB/c cells alone. Low controls are subtracted from all values. High controls without any sample are taken as 100% proliferation. Percent inhibition by the samples is calculated, and the concentrations required for 50% inhibition (IC50 values) are determined.
(In general: Uptake of a labelled nucleoside into DNA is a usual measure of proliferation.)

For experiment [9], the target named is GSK-3β (Homo sapiens, UniProt P49841). The experiment can be described thus: Inhibition of GSK-3β. The format is biochemical. As for the experimental part: The GSK-3β bidding assay is performed in 50 μl reactions in 96 well polypropylene plate, each reaction containing 20 mM magnesium chloride, 40 μM ATP, 2 mM DTT, 88.5 μM biotinylated and phosphorylated CREB-peptide substrate (biotin-KRREILSRRPS(PO4)YR—OH; Q. M. Wang et al., J. Biol. Chem. 269, 14566-14574, 1994), [γ-^33P]ATP (1 μCi) and 2 μl of the compound to be tested in DMSO (various concentrations). 15 μl of GSK-3β (various concentrations) is added and the mixture is incubated at 30° C. for 1 hour. The reaction is stopped by transferring 25 μl of the mixture to a phosphocellulose plate containing 130 μl of 1.85% phosphoric acid. The free radionucleotides in the membrane are washed off under vacuum with 1.85% phosphoric acid (5 times). After the last wash, the plate is transferred to an adaptor plate and 50 μl of scintillation cocktail (Microscint-20, Packard, cat. # 20-133) is added to each well and the amount of radioactivity is counted in a top counter. Compounds of formula I are active in this assay.
GSK-3β, sequence (P49841 whole entry, species assumed): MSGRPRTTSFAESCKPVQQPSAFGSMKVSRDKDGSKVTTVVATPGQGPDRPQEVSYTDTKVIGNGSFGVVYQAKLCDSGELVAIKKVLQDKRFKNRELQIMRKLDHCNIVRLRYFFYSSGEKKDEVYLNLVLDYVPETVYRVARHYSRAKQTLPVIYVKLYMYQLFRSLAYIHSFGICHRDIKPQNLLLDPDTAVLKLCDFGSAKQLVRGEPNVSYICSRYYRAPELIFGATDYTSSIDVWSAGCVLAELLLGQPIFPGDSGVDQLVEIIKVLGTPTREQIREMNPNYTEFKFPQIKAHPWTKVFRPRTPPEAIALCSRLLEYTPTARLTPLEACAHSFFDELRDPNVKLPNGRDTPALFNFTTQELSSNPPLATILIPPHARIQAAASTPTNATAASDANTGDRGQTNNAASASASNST

Experiment [10] deals with lymph node enlargement. The experiment can be described thus: Graft v. host model. It counts as in vivo, rat. Particulars: days 0-3, lymph nodes removed day 7. The procedure:
Spleen cells (2×10^7) from Wistar/F rats are injected subcutaneously into the right hind footpad of (Wistar/F×Fischer 344)F1 hybrid rats. The left footpad is left untreated. The animals are treated with the test compounds on 4 consecutive days (0-3). The popliteal lymph nodes are removed on day 7, and the weight differences between two corresponding lymph nodes are determined. The results are expressed as the inhibition of lymph node enlargement (given in percent) comparing the lymph node weight differences in the experimental groups to the weight difference between the corresponding lymph nodes from a group of animals left untreated with a test compound. In this assay, an inhibition of 100% is obtained with compound of Example 1 or 10 when administered at a dose of 30 or 10 mg/kg bid, respectively.

Human recombinant PKCθ, sequence (Q04759 whole entry, canonical isoform): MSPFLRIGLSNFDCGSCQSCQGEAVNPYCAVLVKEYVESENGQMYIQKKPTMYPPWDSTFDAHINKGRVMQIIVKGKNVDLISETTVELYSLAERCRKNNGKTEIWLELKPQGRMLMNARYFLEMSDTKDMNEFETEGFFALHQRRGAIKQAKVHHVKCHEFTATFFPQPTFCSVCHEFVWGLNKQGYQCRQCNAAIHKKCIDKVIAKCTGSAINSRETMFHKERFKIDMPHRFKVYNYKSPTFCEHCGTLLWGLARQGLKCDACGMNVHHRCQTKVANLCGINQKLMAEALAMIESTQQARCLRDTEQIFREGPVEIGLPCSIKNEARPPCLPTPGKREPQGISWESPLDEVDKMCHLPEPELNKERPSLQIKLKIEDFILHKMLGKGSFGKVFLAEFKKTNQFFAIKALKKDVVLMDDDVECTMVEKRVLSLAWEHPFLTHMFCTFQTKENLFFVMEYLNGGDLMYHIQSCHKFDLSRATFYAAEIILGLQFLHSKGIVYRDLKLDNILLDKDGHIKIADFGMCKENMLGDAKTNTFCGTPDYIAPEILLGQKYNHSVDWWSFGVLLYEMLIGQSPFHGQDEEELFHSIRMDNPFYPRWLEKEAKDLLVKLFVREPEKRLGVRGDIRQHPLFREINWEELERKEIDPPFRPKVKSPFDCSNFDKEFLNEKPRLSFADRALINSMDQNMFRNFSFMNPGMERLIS
T2 sequence (P05771 whole entry): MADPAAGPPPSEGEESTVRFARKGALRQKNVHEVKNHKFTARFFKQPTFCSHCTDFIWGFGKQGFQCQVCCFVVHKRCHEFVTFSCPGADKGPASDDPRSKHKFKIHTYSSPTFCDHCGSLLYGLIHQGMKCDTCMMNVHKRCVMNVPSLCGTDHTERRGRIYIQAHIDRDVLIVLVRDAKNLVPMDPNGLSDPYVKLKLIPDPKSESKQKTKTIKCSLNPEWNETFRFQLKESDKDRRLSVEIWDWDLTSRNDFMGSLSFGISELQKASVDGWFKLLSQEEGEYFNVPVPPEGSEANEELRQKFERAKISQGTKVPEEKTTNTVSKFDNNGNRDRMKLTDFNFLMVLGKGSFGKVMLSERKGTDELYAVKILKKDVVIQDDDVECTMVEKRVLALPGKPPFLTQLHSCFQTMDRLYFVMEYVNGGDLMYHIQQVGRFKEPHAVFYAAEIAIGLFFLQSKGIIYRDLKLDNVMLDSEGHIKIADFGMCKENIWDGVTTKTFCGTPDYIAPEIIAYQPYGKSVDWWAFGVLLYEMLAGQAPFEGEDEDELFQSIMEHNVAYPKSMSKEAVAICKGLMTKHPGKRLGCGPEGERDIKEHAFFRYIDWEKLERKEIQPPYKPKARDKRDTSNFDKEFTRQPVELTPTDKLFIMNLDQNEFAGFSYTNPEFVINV
T5 sequence (P24723 whole entry): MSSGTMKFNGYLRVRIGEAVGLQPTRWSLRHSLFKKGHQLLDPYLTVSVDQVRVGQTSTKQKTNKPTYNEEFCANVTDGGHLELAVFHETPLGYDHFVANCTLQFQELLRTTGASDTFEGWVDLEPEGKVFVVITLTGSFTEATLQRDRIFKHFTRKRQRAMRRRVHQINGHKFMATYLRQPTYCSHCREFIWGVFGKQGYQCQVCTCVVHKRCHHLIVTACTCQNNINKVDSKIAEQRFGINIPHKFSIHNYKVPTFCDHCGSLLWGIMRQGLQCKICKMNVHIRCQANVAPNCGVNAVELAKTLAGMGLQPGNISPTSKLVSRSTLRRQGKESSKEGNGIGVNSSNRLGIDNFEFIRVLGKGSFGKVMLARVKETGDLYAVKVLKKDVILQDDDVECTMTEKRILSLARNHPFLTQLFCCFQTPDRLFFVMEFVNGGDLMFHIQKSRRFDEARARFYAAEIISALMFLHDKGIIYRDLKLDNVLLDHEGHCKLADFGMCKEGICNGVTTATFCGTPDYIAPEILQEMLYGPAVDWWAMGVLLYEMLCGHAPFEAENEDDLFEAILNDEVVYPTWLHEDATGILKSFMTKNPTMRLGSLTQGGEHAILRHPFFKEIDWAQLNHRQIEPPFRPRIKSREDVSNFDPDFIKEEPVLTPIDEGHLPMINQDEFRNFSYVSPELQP

On to `CN1CCN(c2ccc(C(F)(F)F)c(C3=C(c4c[nH]c5ccccc45)C(=O)NC3=O)n2)CC1` [Example 1, 3-(1H-Indol-3-yl)-4-[6-(4-methyl-piperazin-1-yl)-3-tifluoromethyl-pyridin-2-yl]-pyrrole-2,5-dione], for which the IC50 is 5.4 nM in experiment [1]; 2.9 nM in experiment [2]; 5.9 nM in [3]; 21 nM in experiment [4]; 14.7 nM in experiment [5]; 15.3 nM in experiment [6]. Besides, the IC50 in [7] was 13 nM; in experiment [8] it was 28.8 nM; in experiment [9], 18 nM. Also, the “inhibition of lymph node enlargement” value in experiment [10] (30 mg/kg bid) was determined as 100%.
In the case of `CN1CCN(c2ccc(Cl)c(C3=C(c4c[nH]c5ccccc45)C(=O)NC3=O)n2)CC1` [Example 10], the IC50 in [1] was 5.8 nM. In addition, the “inhibition of lymph node enlargement” value in experiment [10] (10 mg/kg bid) stood at 100%.
With `CN(C)Cc1cc2c(C3=C(c4cn(C)c5ccccc45)C(=O)NC3=O)cccc2[nH]1` [Example 39], the IC50 in experiment [2] was 6.3 nM; in [3], 13.2 nM; in experiment [7] it was 46.7 nM; in experiment [8], 285 nM.
On to `Cc1cccc2c(C3=C(c4c(Cl)ccc5[nH]c(CN(C)C)cc45)C(=O)NC3=O)c[nH]c12` [Example 41], for which the IC50 stood at 9.3 nM in experiment [1]; 7.5 nM in [2]; 14.9 nM in experiment [3]; 29.5 nM in experiment [4]; 7.6 nM in [5]; 15 nM in [6]. Also, the IC50 in experiment [7] turned out to be 28.3 nM; in experiment [8], 32.5 nM; in experiment [9] it was 25 nM.
